Type in all cases: in vivo
For test [1], the system named is HN5 (human head and neck tumor line). As to the kind of experiment: HN5 subcutaneous human xenograft mouse model, anti-tumor activity. Particulars: monotherapy, at highest dose; HN5 s.c. xenograft; FIG. 1. The protocol: HN5 cells were cultured in RPMI 1640+10% Fetal bovine serum, Sodium pyruvate and L-Glutamine at 37° in a 95/5% air/CO2 atmosphere. Cells were harvested following trypsin digestion and brought to a density of 2×10^6 cells/200 μl in PBS. Tumors were initiated by injection of the cell suspension subcutaneously in the axillary region.
For the xenograft models used here solid tumors were measured by electronic caliper measurement through the skin, measurements were typically made twice weekly. In the examples presented, tumors were monitored beyond the duration of therapy
Drugs were administered by P.O. or IV. routes. The title compound or salt thereof of Example 1 was formulated in aqueous 0.5% hydroxypropyl methylcellulose, 0.1% Tween 80 and administered as a suspension twice daily for 21 days as indicated in the respective figures. TAXOL® (paclitaxel) (Bristol Myers Squibb Co.) was purchased preformulated in Cremophor-EL saline and diluted into saline to a final Cremophor-EL concentration of 5 or 10% Cremophor-EL for 10 or 20 mg/kg TAXOL® (paclitaxel) therapy respectively. TAXOL® (paclitaxel) was administered IV., once a day, for 5 days (days 1-5 of Example 1 therapy) as indicated in the respective figures. […]

For test [2], the system named is BT474 (human breast tumor line). The test is described as follows: BT474 subcutaneous human xenograft mouse model, anti-tumor activity. The conditions noted are these: monotherapy (Example 1 at the highest dose tested); BT474 s.c. xenograft; FIG. 2. (Xenograft models place foreign cells or tissue in a host animal.)
Method: The BT474 xenograft was maintained by serial transplantation in SCID mice. Tumors are initiated by injection of tumor fragments subcutaneously in the axillary region.
Drugs were administered by P.O. or IV. routes. The title compound or salt thereof of Example 1 was formulated in aqueous 0.5% hydroxypropyl methylcellulose, 0.1% Tween 80 and administered as a suspension twice daily for 21 days as indicated in the respective figures. TAXOL® (paclitaxel) (Bristol Myers Squibb Co.) was purchased preformulated in Cremophor-EL saline and diluted into saline to a final Cremophor-EL concentration of 5 or 10% Cremophor-EL for 10 or 20 mg/kg TAXOL® (paclitaxel) therapy respectively. TAXOL® (paclitaxel) was administered IV., once a day, for 5 days (days 1-5 of Example 1 therapy) as indicated in the respective figures. Carboplatin (Sigma) was formulated in saline and was administered I.V., once a day, for two 5 day periods as indicated in the respective figure (days 1-5 and 15-19 of Example 1 therapy).
In test [3] the test system is NCI H322 (human lung tumor line). The test is described as follows: NCI H322 subcutaneous human xenograft mouse model, anti-tumor activity. Particulars: monotherapy; NCI H322 s.c. xenograft; FIG. 3. The protocol:
Cells were harvested following trypsin digestion and brought to a density of 2×10^6 cells/200 μl in PBS. Tumors were initiated by injection of the cell suspension subcutaneously in the axillary region. In addition some experiments were performed following serial transplantation of tumor fragments in SCID mice. Tumors were initiated by injection of tumor fragments subcutaneously in the axillary region.

In US8444988B2, “Cancer treatment method” (GlaxoSmithKline LLC, priority 2001, dated 2013) one finds tumor growth inhibition data, which are given here for three molecules.

The structures appear in SMILES notation.

For the molecule `N.N.O=C([O-])C1(C(=O)[O-])CCC1.[Pt+2]` [Carboplatin, platinum, diammine [1,1-cyclobutane-dicarboxylate(2-)-O,O′]], the tumor growth inhibition result in test [1] is on record as “about 45%”.
For the molecule `CS(=O)(=O)CCNCc1ccc(-c2ccc3ncnc(Nc4ccc(OCc5cccc(F)c5)c(Cl)c4)c3c2)o1` [Example 1, N-{3-Chloro-4-[(3-fluorobenzyl)oxy]phenyl}-6-[5-({[2-(methylsulfonyl)ethyl]amino}methyl)-2-furyl]-4-quinazolinamine], the results for the tumor growth inhibition entry in test [2], in test [1] and in test [3] were “about 90%”, “about 80%” and 100-130%, respectively.
Turning to `CC(=O)O[C@H]1C(=O)[C@@]2(C)[C@H]([C@H](OC(=O)c3ccccc3)[C@]3(O)C[C@H](OC(=O)[C@H](O)[C@@H](NC(=O)c4ccccc4)c4ccccc4)C(C)=C1C3(C)C)[C@]1(OC(C)=O)CO[C@@H]1C[C@@H]2O` [TAXOL® (paclitaxel), 5β,20-epoxy-1,2α,4,7β,10β,13α-hexa-hydroxytax-11-en-9-one 4,10-diacetate 2-benzoate 13-ester with (2R,3S)-N-benzoyl-3-phenylisoserine], the tumor growth inhibition result in test [2] and in test [3] was “about 45%” each time.
